Read-outs that look alike come from different tables or passages of the source.
Assays:
[1] = molecular target: PRMT5-MTA (Homo sapiens, UniProt O14744); experiment: Enzymatic inhibitory activity against PRMT5-MTA (AlphaScreen); type: biochemical
How it was run: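 PRMT5/[…] (1 nM) was preincubated for 30 min at room temperature with 1 µM […] and 2.5 µM SAM, then exposed to compound (10-point, 3-fold from 1000 nM) for 15 min at 23 °C. Histone H4 substrate (5 nM) was added and reacted for 45 min at 23 °C. Symmetric dimethyl-R3 H4 was detected by AlphaScreen and IC50 calculated.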

[2] = test system: HCT116 MTAP KO cells; experiment: Inhibitory activity against cell proliferation (CellTiter Glo, 6 days), HCT116 MTAP KO; type: cell-based; conditions: for IC50: Homo sapiens, HCT-116, 144 h, HCT116 MTAP KO cells, 6 days, CellTiter Glo, read-out: HCT116 MTAP KO IC50; for Selectivity HCT 116-WT/ HCT116 MTAP KO: ratio of IC50 HCT116-WT / HCT116 MTAP KO
How it was run: (§1)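 Viability is measured by CellTiter Glo luminescence on day 7, following a 6-day treatment with compounds serially diluted 4-fold over 8 points from 10000 nM. Both lines are plated at 250 cells per well and cultured overnight beforehand.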

[3] = test system: HCT116-WT cells; experiment: Inhibitory activity against cell proliferation (CellTiter Glo, 6 days), HCT116-WT; type: cell-based; conditions: 144 h, HCT116-WT cells, 6 days, CellTiter Glo; read-out: HCT116-WT IC50
How it was run: as §1

PRMT5-MTA, sequence (O14744 whole entry): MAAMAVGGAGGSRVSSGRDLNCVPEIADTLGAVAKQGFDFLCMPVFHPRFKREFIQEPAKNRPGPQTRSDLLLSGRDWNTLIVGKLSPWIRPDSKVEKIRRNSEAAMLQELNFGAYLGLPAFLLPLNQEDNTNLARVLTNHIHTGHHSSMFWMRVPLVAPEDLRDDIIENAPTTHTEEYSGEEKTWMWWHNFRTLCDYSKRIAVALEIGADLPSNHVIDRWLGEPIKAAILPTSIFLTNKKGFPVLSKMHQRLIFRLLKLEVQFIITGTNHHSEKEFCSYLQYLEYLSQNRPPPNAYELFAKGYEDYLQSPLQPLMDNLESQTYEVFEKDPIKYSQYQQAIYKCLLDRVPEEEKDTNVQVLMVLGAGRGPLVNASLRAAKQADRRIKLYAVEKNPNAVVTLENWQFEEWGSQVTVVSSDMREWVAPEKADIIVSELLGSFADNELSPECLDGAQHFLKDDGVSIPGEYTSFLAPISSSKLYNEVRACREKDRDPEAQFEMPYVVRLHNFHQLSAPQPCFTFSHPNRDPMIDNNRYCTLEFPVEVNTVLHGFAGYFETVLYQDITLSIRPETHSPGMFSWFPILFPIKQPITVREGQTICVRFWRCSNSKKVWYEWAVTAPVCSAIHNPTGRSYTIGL
PRMT5-MTA, sequence (Q9BQA1 whole entry partner): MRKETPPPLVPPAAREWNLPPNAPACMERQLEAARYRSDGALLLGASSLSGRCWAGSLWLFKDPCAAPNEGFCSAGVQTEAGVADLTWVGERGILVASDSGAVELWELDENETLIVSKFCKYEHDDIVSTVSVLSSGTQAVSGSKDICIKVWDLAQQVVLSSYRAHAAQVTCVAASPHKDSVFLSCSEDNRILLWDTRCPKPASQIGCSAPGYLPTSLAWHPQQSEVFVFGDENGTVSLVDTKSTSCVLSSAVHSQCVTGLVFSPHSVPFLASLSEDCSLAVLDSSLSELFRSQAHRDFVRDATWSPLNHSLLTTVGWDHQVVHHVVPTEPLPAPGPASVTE

Compound | IC50 ([1]; read-out: IC50) [nM] | IC50 [2] [nM] | Selectivity HCT 116-WT/ HCT116 MTAP KO [2] | IC50 [3] [nM] | IC50 [1] [nM]
Cc1cc2nc(N)c3cnn(C)c3c2cc1C(=O)N1CC(C(F)(F)F)CN1c1cccc(F)n1 (stereo not drawn) [Example 352, (4-amino-1,7-dimethyl-1H-pyrazolo[4,3-c]quinolin-8-yl)(2-(6-fluoropyridin-2-yl)-4-(trifluoromethyl)pyrazolidin-1-yl)meth anone] | 12.5 | 77 | 29.42 | 2260 | 
Cn1ncc2c(N)nc3cc(Cl)c(C(=O)N4CC(C(F)(F)F)CN4c4cccc(F)n4)cc3c21 (stereo not drawn) [Example 353, (4-amino-7-chloro-1-methyl-1H-pyrazolo [4,3-c]quinolin-8-yl)(2-(6-fluoropyridin-2-yl)-4-(trifluoromethyl)pyrazolidin-1-yl) methanone] | 6.3 | 108 | 16.81 | 1820 | 
Cc1cc2nc(N)c3cnn(C)c3c2cc1C(=O)N1CC(=O)CN1c1ncccc1F [Example 354, 1-(4-amino-1,7-dimethyl-1H-pyrazolo[4,3-c]quinoline-8-carbonyl)-2-(3-fluoropyridin-2-yl)pyrazolin-4-one] | 3.8 | 62 | 40.76 | 2530 | 
COCC1CN(C(=O)c2cc3c(cc2C)nc(N)c2cnn(C)c23)N(c2ncccc2F)C1 (stereo not drawn) [Example 357] |  | 16 | 53.25 | 852 | 3.4
Cc1cc2nc(N)c3cnn(C)c3c2cc1C(=O)N1CC(CO)CN1c1ncccc1F (stereo not drawn) [Example 358, (4-amino-1,7-dimethyl-1H-pyrazolo[4,3-c]quinolin-8-yl)(2-(3-fluoropyridin-2-yl)-4-(hydroxymethyl)pyrazolidin-1-yl)methanone] | 6.7 | 303 | >33.00 | > 10000 | 
Cn1ncc2c(N)nc3cc(Cl)c(C(=O)N4CC(CF)CN4c4ncccc4F)cc3c21 (stereo not drawn) [Example 359, (4-amino-7-chloro-1-methyl-1H-pyrazolo[4,3-c]quinolin-8-yl)(4-(fluoromethyl)-2-(3-fluoropyridin-2-yl)pyrazolin-1-yl)methanone] |  | 50 | 23.50 | 1180 | 2.7
Cc1cc2nc(N)c3cnn(C)c3c2cc1C(=O)N1CC(C)CN1c1cccc(F)n1 (stereo not drawn) [Example 360, (4-amino-1,7-dimethyl-1H-pyrazolo[4,3-c]quinolin-8-yl)(2-(6-fluoropyridin-2-yl)-4-methylpyrazolidin-1-yl)methanone] | 5.2 | 23 | 50.74 | 1170 | 
Cc1cc2nc(N)c3cnn(C)c3c2cc1C(=O)N1CC(C)CN1c1cccc(C#N)n1 (stereo not drawn) [Example 365, 6-(2-(4-amino-1,7-dimethyl-1H-pyrazolo [4,3-c]quinoline-8-formyl)-4-methylpyrazolidin-1-yl)pyridinecarbonitrile] | 3.2 | 35 | 48.37 | 1690 | 
Cc1cc2nc(N)c3cnn(C)c3c2cc1C(=O)N1CC2(CC2)CN1c1ncccc1F [Example 366, (4-amino-1,7-dimethyl-1H-pyrazolo[4,3-c]quinolin-8-yl)(6-(3-fluoropyridin-2-yl)-5,6-diazaspiro[2.4]heptan-5-yl)methanone] | 7.9 | 7.7 | 41.43 | 319 | 
CC1CN(C(=O)c2ccc3nc(N)c4cnn(C)c4c3c2)N(c2ncccc2F)C1 (stereo not drawn) [Example 367, (4-amino-1-methyl-1H-pyrazolo[4,3-c]quinolin-8-yl)(2-(3-fluoropyridin-2-yl)-4-methylpyrazolidin-1-yl)methanone] | 4.1 | 106 | 49.62 | 5260 | 
Cc1cc2nc(N)c3cnn(C)c3c2cc1C(=O)N1CC(C)CN1c1ccccn1 (stereo not drawn) [Example 368, (4-amino-1,7-dimethyl-1H-pyrazolo[4,3-c]quinolin-8-yl)(4-methyl-2-(pyridin-2-yl)pyrazolidin-1-yl)methanone] | 4.7 | 37 | 78.51 | 2900 | 
Cc1cc2nc(N)c3cnn(C)c3c2cc1C(=O)N1CC(C)CN1c1ncccc1Cl (stereo not drawn) [Example 369, (4-amino-1,7-dimethyl-1H-pyrazolo[4,3-c]quinolin-8-yl)(2-(3-chloropyridin-2-yl)-4-methylpyrazolidin-1-yl)methanone] | 3.9 | 84 | 32.12 | 2700 | 
